Measured values published in patent US20230393148A1, “KITS, REAGENTS AND METHODS FOR THE ASSESSMENT OF LIVER DISEASES” (The General Hospital Corporation, priority 2020, published 2023).
* marks the point of attachment. Hexenoyl(3E) = CC/C=C/CC(=O)*

Experiments:
[1] = tested on: TNFRSF21; assay: Plasma TNFRSF21 by Olink proximity extension assay, randomized trial of tesamorelin vs placebo; format: in vivo, human; settings: HIV-associated NAFLD, tesamorelin 2 mg daily, change over 12 months, plasma NPX, mean ± SD, n = 20
Procedure: (§1) A randomized, double blind trial in which individuals with HIV-associated NAFLD were assigned to receive the growth hormone-releasing hormone (GHRH) analogue tesamorelin 2 mg daily or identical placebo for 12 months (7). […] Changes in circulating levels of proteins corresponding to top leading-edge genes in pathways responsive to tesamorelin between treatment groups were investigated, and the relationships of these proteins to histologic, radiographic, and transcriptomic indices was assessed to identify plasmatic markers of NAFLD/NASH and elucidate potential mechanisms of tesamorelin response.
(§2) 61 men and women 18-70 years old who had documented HIV infection and liver steatosis as defined by hepatic fat fraction ≥5% on ^1H-magnetic resonance spectroscopy (^1H-MRS) were enrolled. […]
(§3) Study procedures for the parent clinical trial have been described in detail elsewhere (7, 9). […] Serum IGF-1 was measured using standard techniques (Quest Laboratories).
(§4) For this analysis, change in targeted proteins over 12 months was assessed using an Olink® Multiplex proximity extension assay (PEA) platform. The PEA is an affinity-based assay that characterizes abundance levels of pre-determined sets of proteins. […] The resultant DNA sequence is detected and quantified using standard real-time PCR on the Fluidigm BioMark™ HD real-time PCR platform. […]

[2] = tested on: CRTAM; assay: Plasma CRTAM by Olink proximity extension assay, randomized trial of tesamorelin vs placebo; format: in vivo, human; settings: HIV-associated NAFLD, tesamorelin 2 mg daily, change over 12 months, plasma NPX, mean ± SD, n = 20
Procedure: as §1, §2, §3, §4

[3] = tested on: VEGFA; assay: Plasma VEGFA by Olink proximity extension assay, randomized trial of tesamorelin vs placebo; format: in vivo, human; settings: HIV-associated NAFLD, tesamorelin 2 mg daily, change over 12 months, plasma NPX, mean ± SD, n = 20
Procedure: as §1, §2, §3, §4

[4] = tested on: CXCL12; assay: Plasma CXCL12 by Olink proximity extension assay, randomized trial of tesamorelin vs placebo; format: in vivo, human; settings: HIV-associated NAFLD, tesamorelin 2 mg daily, change over 12 months, plasma NPX, mean ± SD, n = 20
Procedure: as §1, §2, §3, §4

[5] = tested on: CASP8; assay: Plasma CASP8 by Olink proximity extension assay, randomized trial of tesamorelin vs placebo; format: in vivo, human; settings: HIV-associated NAFLD, tesamorelin 2 mg daily, change over 12 months, plasma NPX, mean ± SD, n = 20
Procedure: as §1, §2, §3, §4

[6] = tested on: hallmark gene pathways; settings: liver biopsy, pre- to post-treatment (12 months), tesamorelin versus placebo, GSEA FDR <0.05; cited from earlier work
[7] = tested on: CSF1; assay: Plasma CSF1 by Olink proximity extension assay, randomized trial of tesamorelin vs placebo; format: in vivo, human; settings: HIV-associated NAFLD, tesamorelin 2 mg daily, change over 12 months, plasma NPX, mean ± SD, n = 20
Procedure: as §1, §2, §3, §4

[8] = tested on: NCR1; assay: Plasma NCR1 by Olink proximity extension assay, randomized trial of tesamorelin vs placebo; format: in vivo, human; settings: HIV-associated NAFLD, tesamorelin 2 mg daily, change over 12 months, plasma NPX, mean ± SD, n = 20
Procedure: as §1, §2, §3, §4

[9] = tested on: CCL20; assay: Plasma CCL20 by Olink proximity extension assay, randomized trial of tesamorelin vs placebo; format: in vivo, human; settings: HIV-associated NAFLD, tesamorelin 2 mg daily, change over 12 months, plasma NPX, mean ± SD, n = 20
Procedure: as §1, §2, §3, §4

[10] = tested on: TGFB1; assay: Plasma TGFB1 by Olink proximity extension assay, randomized trial of tesamorelin vs placebo; format: in vivo, human; settings: HIV-associated NAFLD, tesamorelin 2 mg daily, change over 12 months, plasma NPX, mean ± SD, n = 20
Procedure: as §1, §2, §3, §4

For “trans-3-hexenoyl-GHRH(1-44)-NH2 ({Hexenoyl(3E)}-YADAIFTNSYRKVLGQLSARKLLQDIMSRQQGESNQERGARARL-NH2) [Tesamorelin]”, the “Log2-Fold change plasma TNFRSF21” value [1] was −0.13 ± 0.22, the “Log2-Fold change plasma CRTAM” value [2] was −0.35 ± 0.73 and the “Log2-Fold change plasma VEGFA” value [3] was −0.20±0.35. For the same substance, the “Log2-Fold change plasma VEGFA” value ([3]; listed as tesamorelin) was −0.20±0.35, the “Log2-Fold change plasma CXCL12” value [4] was −0.03 ± 0.18 and the “Log2-Fold change plasma CASP8” value [5] was −0.37 ± 0.72. The “13 hepatic gene sets involved in inflammation, tissue repair, and cell division, regulation with treatment” value [6] was “downregulated”, the “Hepatic gene set pertaining to oxidative phosphorylation, regulation with treatment” value [6] was “upregulated” and the “Log2-Fold change plasma CSF1” value [7] was −0.17±0.21. The “Log2-Fold change plasma CSF1” value ([7]; listed as tesamorelin) was −0.17±0.21, the “Log2-Fold change plasma NCR1” value [8] was −0.20 ± 0.52 and the “Log2-Fold change plasma CCL20” value [9] was −0.28 ± 0.88. The “Log2-Fold change plasma CCL20” value ([9]; listed as tesamorelin) was −0.28±0.88, the “Log2-Fold change plasma TGFB1” value [10] was −0.35±0.56 and the “Log2-Fold change plasma TGFB1” value ([10]; listed as tesamorelin) was −0.35±0.56.
